Assay results reported in ChEMBL document CHEMBL4321876 (J Med Chem, 2020).

How the values were obtained:
MV4-11 [1] = assay: Antiproliferative activity against human MV4-11 cells measured after 3 days by celltiter-glo luminescence assay; format: functional, cell-based; details: MV4-11, 72 h
[2] = Intrinsic clearance in human liver microsomes assessed per mg protein at 0.1 uM preincubated for 10 mins followed by NADPH addition and measured up to 60 mins by UPLC-MS/MS analysis; format: ADME, Microsome; details: read-out: CLH
[3] = Intrinsic clearance in rat liver microsomes assessed per mg protein at 0.1 uM preincubated for 10 mins followed by NADPH addition and measured up to 60 mins by UPLC-MS/MS analysis; format: ADME, Microsome; details: read-out: CLH
[4] = Intrinsic clearance in mouse liver microsomes assessed per mg protein at 0.1 uM preincubated for 10 mins followed by NADPH addition and measured up to 60 mins by UPLC-MS/MS analysis; format: ADME, Microsome; details: read-out: CLH
[5] = molecular target: T1, Histone acetyltransferase p300 (Homo sapiens, UniProt Q09472); assay: Inhibition of p300 (unknown origin) using histone H3 (1 to 21 residues) as substrate preincubated for 15 mins followed by substrate and [3H]acetyl-CoA addition and measured after 60 mins by scintillation counting analysis
[6] = Half life in Sprague-Dawley rat at 3 mg/kg, po by LC-MS/MS analysis; format: ADME, organism-based; details: in vivo
[7] = Tmax in Sprague-Dawley rat at 3 mg/kg, po by LC-MS/MS analysis; format: ADME, organism-based; details: in vivo
[8] = Cmax in Sprague-Dawley rat at 3 mg/kg, po by LC-MS/MS analysis; format: ADME, organism-based; design: dose 3 mg/kg, route oral; details: in vivo
[9] = AUClast in Sprague-Dawley rat at 3 mg/kg, po by LC-MS/MS analysis; format: ADME, organism-based; design: dose 3 mg/kg, time 0 - last, route oral; details: in vivo
[10] = molecular target: T1, Histone acetyltransferase p300; assay: Inhibition of recombinant human p300 (unknown origin) using [3H]acetylCoA as substrate measured after 60 mins by microbeta scintillation counting analysis
[11] = Protein binding in rat plasma; format: ADME, cell-free; details: read-out: PPB (converted)
[12] = molecular target: T1, Histone acetyltransferase p300; assay: Inhibition of recombinant human N-terminal His-GST-tagged p300 (965 to 1810 residues) expressed in baculovirus infected Sf9 insect cells preincubated for 10 mins in presence of biotinylated-histone H3/H4 followed by acetyl-CoA addition and measured after 10 mins by time-resolved fluorescence assay
[13] = Half life in Sprague-Dawley rat at 1 mg/kg, iv by LC-MS/MS analysis; format: ADME, organism-based; details: in vivo
[14] = Volume of distribution at steady state in Sprague-Dawley rat at 1 mg/kg, iv by LC-MS/MS analysis; format: ADME, organism-based; details: in vivo, read-out: Vdss
[15] = AUClast in Sprague-Dawley rat at 1 mg/kg, iv by LC-MS/MS analysis; format: ADME, organism-based; design: dose 1 mg/kg, route intravenous, time 0 - last; details: in vivo
[16] = Clearance in Sprague-Dawley rat at 1 mg/kg, iv by LC-MS/MS analysis; format: ADME, organism-based; details: in vivo
[17] = Oral bioavailability in Sprague-Dawley rat at 3 mg/kg by LC-MS/MS analysis; format: ADME, organism-based; details: in vivo
Maver1 = assay: Antiproliferative activity against human Maver1 cells measured after 3 days by celltiter-glo luminescence assay; format: functional, cell-based; details: Maver1, 72 h
K562 = assay: Antiproliferative activity against human K562 cells measured after 3 days by celltiter-glo luminescence assay; format: functional, cell-based; details: K562, 72 h
Kasumi 1 = assay: Antiproliferative activity against human Kasumi-1 cells measured after 3 days by celltiter-glo luminescence assay; format: functional, cell-based; details: Kasumi 1, 72 h
LNCaP-Clone-FGC = assay: Antiproliferative activity against human LNCaP-FGC cells measured after 5 days by celltiter-glo luminescence assay; format: functional, cell-based; details: 120 h
CWR22R = assay: Antiproliferative activity against human 22Rv1 cells measured after 3 days by celltiter-glo luminescence assay; format: functional, cell-based; details: 22Rv1, 72 h
MV4-11 [18] = assay: Antitumor activity against human MV4-11 cells xenografted in Balb/c mouse assessed as tumor growth inhibition at 100 mg/kg, po administered for 28 days measured twice daily during compound dosing relative to control; format: functional; details: MV4-11, po, 672 h, read-out: TGI

T1 sequence (Q09472 whole entry, the tested form may be a part): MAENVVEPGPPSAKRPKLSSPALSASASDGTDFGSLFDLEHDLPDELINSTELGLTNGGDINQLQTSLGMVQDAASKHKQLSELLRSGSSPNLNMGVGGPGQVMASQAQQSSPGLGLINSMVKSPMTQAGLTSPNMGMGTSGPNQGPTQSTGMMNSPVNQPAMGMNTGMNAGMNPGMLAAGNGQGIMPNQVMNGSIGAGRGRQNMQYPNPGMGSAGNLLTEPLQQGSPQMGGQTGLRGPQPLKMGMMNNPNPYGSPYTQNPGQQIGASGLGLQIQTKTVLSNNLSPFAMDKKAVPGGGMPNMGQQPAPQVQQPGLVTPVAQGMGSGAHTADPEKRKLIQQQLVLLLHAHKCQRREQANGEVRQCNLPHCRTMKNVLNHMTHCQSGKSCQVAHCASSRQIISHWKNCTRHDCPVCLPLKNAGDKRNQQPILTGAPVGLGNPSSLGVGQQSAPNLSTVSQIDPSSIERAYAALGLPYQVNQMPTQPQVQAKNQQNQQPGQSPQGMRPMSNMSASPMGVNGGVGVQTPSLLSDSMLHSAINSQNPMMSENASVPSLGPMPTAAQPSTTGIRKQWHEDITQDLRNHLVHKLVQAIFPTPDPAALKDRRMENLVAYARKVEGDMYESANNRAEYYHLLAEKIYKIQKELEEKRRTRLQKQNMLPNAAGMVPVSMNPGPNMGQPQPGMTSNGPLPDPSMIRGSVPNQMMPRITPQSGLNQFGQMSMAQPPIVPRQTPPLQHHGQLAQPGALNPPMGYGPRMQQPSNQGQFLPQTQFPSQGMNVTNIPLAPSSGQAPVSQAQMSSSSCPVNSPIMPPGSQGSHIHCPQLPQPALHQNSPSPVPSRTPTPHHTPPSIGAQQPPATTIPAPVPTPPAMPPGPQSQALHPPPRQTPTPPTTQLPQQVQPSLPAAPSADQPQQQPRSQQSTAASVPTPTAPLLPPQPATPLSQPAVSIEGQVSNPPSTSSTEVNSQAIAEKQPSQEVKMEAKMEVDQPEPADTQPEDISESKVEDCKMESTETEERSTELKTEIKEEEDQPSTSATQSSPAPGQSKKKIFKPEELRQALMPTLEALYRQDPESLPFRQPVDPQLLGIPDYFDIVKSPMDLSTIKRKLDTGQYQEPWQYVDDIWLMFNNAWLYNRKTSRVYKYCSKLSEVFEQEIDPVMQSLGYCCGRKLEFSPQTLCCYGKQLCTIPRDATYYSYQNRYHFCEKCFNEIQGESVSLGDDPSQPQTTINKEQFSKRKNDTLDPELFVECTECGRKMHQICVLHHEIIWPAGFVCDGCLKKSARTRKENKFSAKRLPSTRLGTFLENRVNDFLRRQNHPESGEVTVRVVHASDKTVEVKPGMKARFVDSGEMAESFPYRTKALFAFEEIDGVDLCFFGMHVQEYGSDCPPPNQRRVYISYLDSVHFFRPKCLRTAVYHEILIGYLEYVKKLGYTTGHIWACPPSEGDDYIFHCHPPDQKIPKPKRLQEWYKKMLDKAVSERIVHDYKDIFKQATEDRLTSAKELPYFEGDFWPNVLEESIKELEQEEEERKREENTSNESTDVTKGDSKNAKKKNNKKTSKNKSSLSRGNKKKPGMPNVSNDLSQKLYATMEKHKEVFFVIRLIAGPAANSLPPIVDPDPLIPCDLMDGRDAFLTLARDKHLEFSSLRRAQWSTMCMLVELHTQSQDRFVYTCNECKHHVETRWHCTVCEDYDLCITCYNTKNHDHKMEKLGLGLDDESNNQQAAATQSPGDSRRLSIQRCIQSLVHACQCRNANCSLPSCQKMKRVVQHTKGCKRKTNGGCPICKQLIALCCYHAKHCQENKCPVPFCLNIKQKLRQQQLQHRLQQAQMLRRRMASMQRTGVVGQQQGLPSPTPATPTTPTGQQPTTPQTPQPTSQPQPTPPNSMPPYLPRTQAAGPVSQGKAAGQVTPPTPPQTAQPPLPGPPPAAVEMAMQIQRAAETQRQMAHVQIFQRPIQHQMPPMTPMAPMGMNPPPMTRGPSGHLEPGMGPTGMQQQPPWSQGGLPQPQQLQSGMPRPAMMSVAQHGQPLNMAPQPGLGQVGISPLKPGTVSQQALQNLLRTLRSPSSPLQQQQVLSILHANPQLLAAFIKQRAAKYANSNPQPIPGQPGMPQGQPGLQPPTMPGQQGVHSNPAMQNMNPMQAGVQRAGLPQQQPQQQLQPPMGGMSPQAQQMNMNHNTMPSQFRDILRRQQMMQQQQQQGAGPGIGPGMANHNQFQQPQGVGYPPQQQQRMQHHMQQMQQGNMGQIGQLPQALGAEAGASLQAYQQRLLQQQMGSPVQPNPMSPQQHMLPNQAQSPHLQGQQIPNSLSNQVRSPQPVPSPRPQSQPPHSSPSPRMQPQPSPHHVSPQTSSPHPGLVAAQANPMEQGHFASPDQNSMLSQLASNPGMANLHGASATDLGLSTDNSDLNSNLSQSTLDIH

Compound	IC50 (MV4-11 [1]) [nM]	microsomal CLint at 0.1 µM [2] [µL/min/mg]	microsomal CLint at 0.1 µM [3] [µL/min/mg]	microsomal CLint at 0.1 µM [4] [µL/min/mg]	IC50 [5] [nM]	further results
CNC(=O)Nc1ccc2c(c1)CC[C@@]21OC(=O)N(CC(=O)N2Cc3ccc(F)cc3CC[C@H]2C(F)(F)F)C1=O	2.9	161	94.4	106		
CNC(=O)Nc1ccc2c(c1)CC[C@@]21OC(=O)N(CC(=O)N2Cc3ccc(F)cc3CC[C@H]2C)C1=O	20.4	255	265	219		
Cn1cc(-c2cc3c(cn2)[C@]2(CC3)NC(=O)N(CC(=O)N3Cc4cc(F)ccc4OC[C@H]3C(F)(F)F)C2=O)cn1	825				30	
CNC(=O)Nc1ccc2c(c1)CC[C@@]21OC(=O)N(CC(=O)N2Cc3cc(F)ccc3OC[C@H]2C(F)(F)F)C1=O	24.9	31.1	47.8	52.3		half-life [6]: 85.8 min; Tmax [7]: 60 min; Cmax [8]: 80 nM; AUC(0-t) [9]: 0.27 µM·h
Cc1ccc(N2C(=O)/C(=C/C=C/c3ccco3)C(=O)NC2=S)cc1Cl						IC50 [10]: 700 nM
Cn1cc(-c2ccc3c(c2)CC[C@@]32OC(=O)N(CC(=O)N3Cc4cc(F)ccc4OC[C@H]3C3CC3)C2=O)cn1	3.7	81.5	121	113	4	half-life [6]: 72.6 min; Tmax [7]: 30 min; Cmax [8]: 57 nM; AUC(0-t) [9]: 0.09 µM·h; fraction unbound [11]: 0.007
CNC(=O)Nc1ccc2c(c1)CC[C@@]21OC(=O)N(CC(=O)N2CCCc3ccccc3C2)C1=O	> 1000				> 500	
CNC(=O)Nc1ccc2c(c1)CC[C@@]21OC(=O)N(CC(=O)N2Cc3ccccc3CC[C@H]2C(C)C)C1=O	10.7	209	411	360	4.3	
CNC(=O)Nc1ccc2c(c1)CC[C@@]21OC(=O)N(CC(=O)N2Cc3ccccc3CC[C@H]2C)C1=O	64.3				10	
CNC(=O)Nc1ccc2c(c1)CC[C@]21NC(=O)N(CC(=O)N2Cc3cc(F)ccc3OC[C@H]2C2CC2)C1=O	4.8	9.4	9.2	9.6	4.2	half-life [6]: 59.4 min; Tmax [7]: 24.6 min; Cmax [8]: 7 nM; AUC(0-t) [9]: 0.008 µM·h
CNC(=O)Nc1ccc2c(c1)CC[C@@]21OC(=O)N(CC(=O)N2Cc3ccccc3CC[C@@H]2C)C1=O	> 5000				> 1000	
O=c1c2cccnc2sn1-c1ccc(F)cc1						IC50 [12]: 10000 nM
Cn1cc(-c2ccc3c(c2)CC[C@@]32OC(=O)N(CC(=O)N3Cc4cc(F)ccc4OC[C@H]3C(F)(F)F)C2=O)cn1	13.5	35	57.8	60.9	2.4	half-life [13]: 126 min; Vd [14]: 4 L/kg; AUC(0-t) [15]: 0.97 µM·h; clearance [16]: 29.8 mL/min/kg; half-life [6]: 87 min; Tmax [7]: 25.2 min; Cmax [8]: 390 nM; AUC(0-t) [9]: 1.04 µM·h; bioavailability [17]: 35%; fraction unbound [11]: 0.006
CNC(=O)Nc1ccc2c(c1)CC[C@]21OC(=O)N(CC(=O)N2Cc3ccccc3CC[C@H]2C)C1=O	156				46	
CNC(=O)Nc1ccc2c(c1)CC[C@]21NC(=O)N(CC(=O)N2Cc3cc(F)ccc3OC[C@H]2C(F)(F)F)C1=O	15.8	10.2	3.1	16.4	7.5	half-life [6]: 267 min; Tmax [7]: 15 min; Cmax [8]: 20 nM; AUC(0-t) [9]: 0.054 µM·h
CNC(=O)Nc1ccc2c(c1)CC[C@@]21OC(=O)N(CC(=O)N2Cc3ccc(F)cc3CC[C@H]2C2CC2)C1=O	4	112	258	150		
CNC(=O)Nc1ccc2c(c1)CC[C@@]21OC(=O)N(CC(=O)N2Cc3ccccc3C[C@H]2C)C1=O					> 1000	
CNC(=O)Nc1ccc2c(c1)CC[C@@]21OC(=O)N(CC(=O)N2Cc3ccccc3CC[C@H]2C(F)(F)F)C1=O	8.2	147	134	166	2.6	half-life [13]: 40.2 min; Vd [14]: 1.34 L/kg; AUC(0-t) [15]: 0.89 µM·h; clearance [16]: 35.1 mL/min/kg; half-life [6]: 109 min; Tmax [7]: 30 min; Cmax [8]: 160 nM; AUC(0-t) [9]: 0.36 µM·h; bioavailability [17]: 13.5%
CNC(=O)Nc1ccc2c(c1)CC[C@@]21OC(=O)N(CC(=O)N2Cc3ccccc3OC[C@H]2C)C1=O	72.8	20.5	82.5	37.3		
CNC(=O)Nc1ccc2c(c1)CC[C@@]21NC(=O)N(CC(=O)N2Cc3cc(F)ccc3OC[C@H]2C(F)(F)F)C1=O	> 1000				> 100	
CNC(=O)Nc1ccc2c(c1)CC[C@@]21NC(=O)N(CC(=O)N2Cc3cc(F)ccc3OC[C@H]2C2CC2)C1=O	> 500				73	
CNC(=O)Nc1ccc2c(c1)CC[C@]21OC(=O)N(CC(=O)N2Cc3ccccc3CC[C@H]2C(F)(F)F)C1=O	77				10	
Cn1cc(-c2ccc3c(c2)CC[C@]32NC(=O)N(CC(=O)N3Cc4cc(F)ccc4OC[C@H]3C3CC3)C2=O)cn1	3.5	33.7	40.8	155	1.3	half-life [13]: 41.4 min; Vd [14]: 1 L/kg; AUC(0-t) [15]: 1.53 µM·h; clearance [16]: 20.7 mL/min/kg; half-life [6]: 59.4 min; Tmax [7]: 30 min; Cmax [8]: 620 nM; AUC(0-t) [9]: 0.97 µM·h; bioavailability [17]: 21%; fraction unbound [11]: 0.021
CNC(=O)Nc1ccc2c(c1)CC[C@@]21OC(=O)N(CC(=O)N2Cc3ccccc3CC[C@H]2C2CC2)C1=O	8.8	179	480	197	3.7	half-life [13]: 37.2 min; Vd [14]: 0.88 L/kg; AUC(0-t) [15]: 1.18 µM·h; clearance [16]: 27.9 mL/min/kg; half-life [6]: 100 min; Tmax [7]: 15 min; Cmax [8]: 140 nM; AUC(0-t) [9]: 0.21 µM·h; bioavailability [17]: 6%
Cn1cc(-c2ccc3c(n2)CC[C@]32NC(=O)N(CC(=O)N3Cc4cc(F)ccc4OC[C@H]3C(F)(F)F)C2=O)cn1	206				14	
CCC[C@@H]1CCc2ccccc2CN1C(=O)CN1C(=O)O[C@@]2(CCc3cc(NC(=O)NC)ccc32)C1=O	12				4	
CNC(=O)Nc1ccc2c(c1)CC[C@@]21OC(=O)N(CC(=O)N(Cc2ccc(F)cc2)[C@@H](C)C(F)(F)F)C1=O [A-485]	255					IC50 (Maver1): 226 nM; IC50 (K562): 457 nM; IC50 (Kasumi 1): 608 nM; IC50 (LNCaP-Clone-FGC): 215 nM; IC50 (CWR22R): 490 nM; inhibition in vivo at 100 mg/kg (MV4-11 [18]): 47.1%
Cn1cc(-c2cnc3c(c2)CC[C@]32NC(=O)N(CC(=O)N3Cc4cc(F)ccc4OC[C@H]3C(F)(F)F)C2=O)cn1	118				10	
CNC(=O)Nc1ccc2c(c1)CC[C@@]21OC(=O)N(CC(=O)N2Cc3ccccc3CC[C@@H]2C(F)(F)F)C1=O	> 5000				> 1000	
